We go through one compound from patent US20070015833A1 (priority 2005, published 2007).

The data set is described as follows: small volume in vitro release in 50 ml 0.1N HCl. Type of data set: physicochemical. The conditions noted are these: 37° C., 150 rpm. The method, then: The formulations were tested for their small volume in vitro release characteristics in 50 ml 0.1N HCl at 37° C. and 150 rpm using the following procedure: III. Instrumentation (or Equivalent) a. Automated Dissolution System comprising of: Hanson SR8 Plus Test Station Hanson Auto Plus Maximiser System Controller Hanson Auto Plus MultiFill Fraction Collector b. HPLC System comprising of: pump—Merck Hitachi L-7100 autoinjector—Merck Hitachi L-7200 column oven—Merck Hitachi L-7300 detector—Merck Hitachi L-7400 interface and integration software—Merck Hitachi D-7000
0.1N HCl Preparation Dilute 8.5 ml HCl 37% to 1 liter with purified water. Procedure Place one weighed capsule in each vessel containing 0.1N HCl and immediately operate the apparatus for 30 min. Unless otherwise specified, 3 ml samples are withdrawn from each vessel and immediately filtered through PTFE membranes at 15 and 30 min.
The small volume was chosen as a model of the conditions in a fasted stomach.

With `CC(C)OC(=O)C(C)(C)Oc1ccc(C(=O)c2ccc(Cl)cc2)cc1` [Micronized Fenofibrate], the “dissolution (in words)” value is “no dissolution at all”. Besides, the “% dissolved 15 min” value (15 min) was 0%. For the same compound, the “% dissolved 30 min” value (30 min) was found to be 0%.
